In PMC5013292, “A Putative Bacterial ABC Transporter Circumvents the Essentiality of Signal Peptidase” (mBio, 2016):

What was measured:
[1] = molecular target: T1, full length recombinant SpsB (Staphylococcus aureus, UniProt P0A070); experiment: Enzymatic activity of recombinant SpsB; type: biochemical, S. aureus; settings: result in words; Fig. S1C
T1 construct: 500 pM full length recombinant SpsB from S. aureus
Procedure: White 384-well low-volume polypropylene assay plates (Thermo Scientific, Waltham, MA) were pre-spotted with 25 nL per well of compound 103, serially diluted in DMSO, using an Echo instrument (Labcyte, Sunnyvale, CA). A 10 µL reaction in PBS (pH 7.4) containing 0.1% Triton X-100 was then initiated by adding 500 pM full length recombinant SpsB from S. aureus plus 10 µM fluorogenic peptide substrate Dabcyl-βAla-KPAKAAE-Edans (GL Biochem, Boston, MA). Substrate cleavage separates the Dabcyl quencher from the Edans fluorophore, resulting in 490nm fluorescence (340nm excitation). The reaction was read kinetically using an M-1000 plate reader (Tecan, Morrisville, NC), plotting the initial slope (rate) of fluorescence generation versus inhibitor concentration to derive IC50 values.

[2] = system: S. aureus USA300 SpsB-low; experiment: MIC, USA300 SpsB-low; type: cell-based; settings: result in words
Procedure: (§1) MICs were determined according to the standard protocol from the Clinical and Laboratory Standards Institute ([23]). Briefly, S. aureus bacteria were harvested from regular MHA plates that had been cultured for ~20 h at 37°C. Serial dilutions of compound 103 were incubated with bacteria at approximately 10^6 CFU (CFU)/ml in MHB in round-bottom 96 well plates (Corning, Corning, NY) for 22 h at 37°C. MICs were determined by the lowest concentration of compound 103 showing absence of growth by visual inspection.
A strain of USA300 Δmcr overexpressing SpsB (USA300 SpsB-high; GNE0028) was engineered by cloning SpsB under the constitutive sarA promoter into vector pMK4, resulting in SpsB expression that was ~20-fold higher than the wild-type level as determined by Western blotting. A USA300 Δmcr strain that underexpresses SpsB (USA300 SpsB-low; […]) was generated by genomic incorporation of spsB under the isopropyl-β-D-thiogalactopyranoside (IPTG)-sensitive promoter spac; without IPTG, this strain expresses SpsB at ~5% of the wild-type level as determined by Western blotting.

[3] = system: 102 globally diverse clinical S. aureus isolates; experiment: MIC, global panel of 102 clinical isolates; type: cell-based; settings: among a panel of 102 clinical S. aureus isolates
Description: Wild-type clinical S. aureus strains were obtained from the Network on Antibiotic Resistance in Staphylococcus aureus (NARSA/BEI) program. MRSA strain USA300 refers throughout this paper to strain NRS384 from NARSA/BEI. A global panel of 102 clinical S. aureus isolates was selected from the collection of International Health Management Associates, Inc. (IHMA; Schaumburg, IL), based on diversity of geographic locations, antibiotic resistance profiles, and sites of infection. Bacteria were cultured on cation-adjusted Mueller-Hinton agar (MHA) plates or in cation-adjusted Mueller-Hinton broth (MHB). Bacterial strains used in this study are listed in Table S5 in the supplemental material.
as §1

[4] = system: S. aureus USA300; experiment: Frequency of spontaneous resistance, USA300; type: cell-based; settings: agar with compound 103 at fourfold its MIC; 37°C, 2 days; output/input CFU
Procedure: (§2) To determine the frequency of spontaneous resistance, suspensions containing approximately 5 × 10^9 CFU of S. aureus were cultured on MHA plates containing compound 103 at fourfold the MIC; serial dilutions were cultured in parallel on regular MHA to determine the actual number of CFU (input). The frequency of spontaneous resistance was defined as the number of viable colonies able to grow in the presence of compound 103 after culture at 37°C for 2 days (output) divided by input.

[5] = system: USA300 SAUSA300_0352(K44A) (strain GNE0174); experiment: Frequency of spontaneous resistance, GNE0174; type: cell-based, S. aureus; settings: K44A in SAUSA300_0352 in WT USA300 background; fourfold MIC; 37°C, 2 days; approximately 2 orders of magnitude reduced
Procedure: as §2
(§3) To generate mutations in SAUSA300_0351, _0352, and _0353 genes by homologous recombination, we transformed USA300 Δmcr using targeting constructs created in the vector pIMAY ([24]). To generate mutations in SAUSA300_0351, _0352, and _0353 genes in a cro/cI mutant background, we selected colonies from USA300 Δmcr cultured on plates containing fourfold the MIC of compound 103. Sequencing of PCR products of the cro/cI gene from resistant colonies yielded a clone with a Q16stop codon mutation in cro/cI (strain GNE0173). We further mutated SAUSA300_0351, _0352, and _0353 in this USA300 Δmcr cro/cI (Q16stop) clone to study the contributions of these three genes to cro/cI-mediated resistance.

[6] = system: USA300 WT(pMK4) (GNE0163); experiment: MIC fold increase, GNE0163; type: cell-based, S. aureus
Procedure: as §1

[7] = system: psarA-SAUSA300_0351_0352_0353 (GNE0162); experiment: MIC fold increase, GNE0162; type: cell-based, S. aureus
Procedure: as §1, §3

[8] = system: cro/cI(M1V)(pMK4) (GNE0107); experiment: MIC fold increase, GNE0107; type: cell-based, S. aureus
Procedure: as §1

[9] = system: cro/cI(−14G→T)(pcro/cI-cro/cI) (GNE0097); experiment: MIC fold increase, GNE0097; type: cell-based, S. aureus
Procedure: as §1

[10] = system: Δmcr cro/cI(Q16stop) (GNE0173); experiment: MIC fold increase, GNE0173; type: cell-based, S. aureus
Procedure: as §1, §3

[11] = system: Δmcr cro/cI(Q16stop) Δ(SAUSA300_0351-SAUSA300_0352-SAUSA300_0353) (GNE0220); experiment: MIC fold increase, GNE0220; type: cell-based, S. aureus
Procedure: as §1, §3

[12] = system: Δmcr cro/cI(Q16stop) SAUSA300_0352(K44A) (GNE0175); experiment: MIC fold increase, GNE0175; type: cell-based, S. aureus
Procedure: as §1, §3

[13] = system: SpsB Y30C mutant of USA300 Δmcr cro/cI(Q16stop) SAUSA300_0352(K44A); experiment: MIC fold increase, SpsB Y30C mutant; type: cell-based, S. aureus
Procedure: as §1

[14] = system: SpsB Y30N mutant of USA300 Δmcr cro/cI(Q16stop) SAUSA300_0352(K44A); experiment: MIC fold increase, SpsB Y30N mutant; type: cell-based, S. aureus
Procedure: as §1

[15] = system: SpsB Y30S mutant of USA300 Δmcr cro/cI(Q16stop) SAUSA300_0352(K44A); experiment: MIC fold increase, SpsB Y30S mutant; type: cell-based, S. aureus
Procedure: as §1

T1 sequence (P0A070 whole entry): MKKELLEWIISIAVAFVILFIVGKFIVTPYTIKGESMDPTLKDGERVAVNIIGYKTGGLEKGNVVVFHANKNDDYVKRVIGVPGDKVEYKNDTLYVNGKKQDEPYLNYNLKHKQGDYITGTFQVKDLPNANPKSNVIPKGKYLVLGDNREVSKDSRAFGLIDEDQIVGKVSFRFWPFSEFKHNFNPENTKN

CCCCc1ccc(-c2ccc(C(=O)N[C@@H](CCCCN)C(=O)N(C)[C@@H]3C(=O)N[C@@H](C)C(=O)N[C@H](C(=O)NCC(C)C(=O)O)Cc4ccc(O)c(c4)-c4cc3ccc4O)cc2)cc1 (stereo partly shown) [Compound 103]
inhibition of enzymatic activity of recombinant SpsB [1]: dose dependently inhibited | MIC for a strain that underexpresses SpsB [2]: reduced MIC | isolates resistant to compound 103 [3]: 7 isolates | frequency of spontaneous resistance [4]: 3 × 10^−7 | frequency of spontaneous resistance [5]: 2 × 10^−9 | MIC of compound 103 (fold increase versus MIC for USA300 WT) [6]: 1.0 fold | MIC of compound 103 (fold increase versus MIC for USA300 WT) ([7]; GNE0162): >32 fold | resistance phenotype ([7]; GNE0162, overexpression of 3 ABC transporter genes, result in words): induced resistance | MIC of compound 103 (fold increase versus MIC for USA300 WT) [8]: >32 fold | MIC of compound 103 (fold increase versus MIC for USA300 WT) ([9]; GNE0097): 3.0 fold | resistance phenotype ([9]; GNE0097, plasmid-encoded WT cro/cI, result in words): reversed the resistant phenotype | MIC of compound 103 (fold increase versus MIC for USA300 WT) [10]: >32 fold | MIC of compound 103 (fold increase versus MIC for USA300 WT) ([11]; GNE0220): 2.0 fold | resistance phenotype ([11]; GNE0220, deletion of all 3 ABC transporter genes, result in words): reversed the resistant phenotype | MIC of compound 103 (fold increase versus MIC for USA300 WT) ([12]; GNE0175): 1.0 fold | resistance phenotype ([12]; GNE0175, SAUSA300_0352(K44A), result in words): reversed the resistant phenotype | MIC of compound 103 (fold increase versus MIC for USA300 WT) [13]: 4 fold | MIC of compound 103 (fold increase versus MIC for USA300 WT) [14]: 4 fold | MIC of compound 103 (fold increase versus MIC for USA300 WT) [15]: 4 fold
